In patent publication US5840732A, “Imidazopyridine or imidazopyrimidine compounds, their production and use” (Takeda Chemical Industries Ltd., priority 1994, dated 1998):

How the values were obtained:
[1] = test system: ICAM-1 expression in human umbilical cord vascular endothelial cells; test: Inhibitory activity of adhesion molecule expression (ICAM-1, cell-ELISA); format: cell-based; details: TNFα 1 ng/ml, 37° C., 5 hours
Protocol: (§1) Inhibitory activity of adhesion molecule expression
(§2) Test method: To human umbilical cord vascular endothelial cells (purchased from Kurabo), cultured on gelatin-coated plates, compounds at various concentrations (test compounds) were added, followed by incubation at 37° C. for 15 minutes. Human tumor necrosis factor (TNFα, purchased from Genzyme) was then added to a final concentration of 1 ng/ml, followed by incubation at 37° C. for 3 hours for ELAM-1 expression or for 5 hours for ICAM-1 expression. After the reaction, cells were fixed with glutaraldehyde; the amounts of ELAM-1 and ICAM-1 expressed were determined by cell-ELISA. Anti-ELAM-1 antibody BBA-2 and an anti-ICAM-1 antibody BBA-4 were used as the first antibodies for the defection of ELAM-1 and ICAM-1, respectively, and horse radish peroxidase-labeled rabbit anti-mouse IgG antibody was used as the second antibody to determine the amount of adhesion molecules expressed on cells observed. The compound concentration at which 50% expression was expressed as the 50% inhibitory concentration (IC50), with the amount of expression in the absence of compounds as 100 and the amount of expression in the absence of TNFα as 0.

[2] = test system: ELAM-1 expression in human umbilical cord vascular endothelial cells; test: Inhibitory activity of adhesion molecule expression (ELAM-1, cell-ELISA); format: cell-based; details: TNFα 1 ng/ml, 37° C., 3 hours
Protocol: as §1, §2

[3] = test system: Wistar fatty rats (rat model of hereditary obese diabetes mellitus); test: Diabetic nephritis improving action in Wistar fatty rats; format: in vivo, rat (male Wistar fatty); details: 50 mg/kg/day oral, 12 weeks, n=6, mean ± standard deviation; for Urinary Albumin: control 35.69 ± 15.44 (for 2), 24.53 ± 7.19 (for 3); for Urinary Total Protein: control 145.19 ± 34.99 (for 2), 131.53 ± 22.81 (for 3), both p < 0.05 vs control; for Plasma Glucose: control 352.00 ± 36.09 (for 2), 368.83 ± 24.35 (for 3), 3: p < 0.05 vs control
Protocol: Diabetic nephritis improving action in Wistar fatty rats (rat model of hereditary obese diabetes mellitus)
Test method: Male Wistar fatty rats at 9 weeks of age were divided into two groups according to plasma glucose level, urinary total protein excretion and body weight: a control group and a test compound group (n=6). The test compound, in suspension in 0.5% methyl cellulose (Wako Pure Chemical) at 2 ml/kg, was orally administered by gavage once a day for 12 consecutive weeks. For the control group, only the 0.5% methyl cellulose suspension was orally administered in the same manner as the test compounds. At every 3 weeks, plasma glucose, urinary total protein and albumin excretion were quantitated by the enzyme method, the Lowry method (Journal of Biological Chemistry, Vol. 193, pp. 265-275 (1951)] and the method of Mohamed et al. [Journal of Immunology Methods, Vol. 74, pp. 17-22 (1984)], respectively.

Row | SMILES | IC50 [1] | IC50 [2] | Urinary Albumin [3] | Urinary Total Protein [3] | Plasma Glucose [3]
1 | O=C1SC(=CCCCc2ccccc2)C(=O)N1CCCCSc1cccc2nccn12 [compound 21] | 4 µM | 3.3 µM |  |  | 
2 | O=C(CCCSc1cccc2nccn12)NCCCn1c(=O)c(-c2ccccc2)c2n(c1=O)CCCS2(=O)=O [compound 79] | 5.9 µM | 6.1 µM |  |  | 
3 | O=C1OC(=CCCc2ccccc2)C(=O)N1CCCCSc1cccc2nccn12 [compound 33] | 6.3 µM | 2.8 µM |  |  | 
4 | CCCC=C1SC(=O)N(CCC2(CCSc3cccc4nccn34)CCCC2)C1=O [compound 55] | 5.5 µM | 7.3 µM |  |  | 
5 | CCCC=C1SC(=O)N(CCC(C)(C)CCSc2cccc3nccn23)C1=O [compound 54] | 5 µM | 6.1 µM |  |  | 
6 | CCCC=C1SC(=O)N(CCCCOc2cccn3cc(C(=O)OCC)nc23)C1=O [compound 27] | 6.5 µM | 5 µM |  |  | 
7 | CCCC=C1SC(=O)N(CCCCOc2cccn3cc(C)nc23)C1=O [compound 48] | 6.4 µM | 4.6 µM |  |  | 
8 | CCCC=C1SC(=O)N(Cc2cccc3nccn23)C1=O [compound 15] | 7 µM | 6.2 µM |  |  | 
9 | COc1ccccc1CCC=C1SC(=O)N(CCCCSc2cccc3nccn23)C1=O [compound 81] | 4.3 µM | 6.1 µM |  |  | 
10 | CCC=C1SC(=O)N(CCCCOc2cccn3ccnc23)C1=O [compound 68] | 5 µM | 3.2 µM |  |  | 
11 | CCCC=C1SC(=O)N(CCCc2cccc3nccn23)C1=O [compound 12] | 4.9 µM | 4.4 µM |  |  | 
12 | COc1ccc(CCC=C2SC(=O)N(CCCCSc3cccc4nccn34)C2=O)cc1 [compound 80] | 4.1 µM | 4.6 µM |  |  | 
13 | CCCCCCC=C1SC(=O)N(CCCCSc2cccc3nccn23)C1=O [compound 57] | 7.1 µM | 7.9 µM |  |  | 
14 | CCCC=C1SC(=O)N(CCCCSc2cccc3nc(C)cn23)C1=O [compound 23] | 7 µM | 3.6 µM |  |  | 
15 | O=C1OC(=CCCc2ccccc2)C(=O)N1CCCCOc1cccn2ccnc12 [compound 32] | 5.7 µM | 3.2 µM |  |  | 
16 | O=C(NCCCn1c(=O)c(-c2ccccc2)c2n(c1=O)CCCS2(=O)=O)OCCc1cccc2nccn12 [compound 53] | 6.3 µM | 6.2 µM |  |  | 
17 | CCCCC=C1SC(=O)N(CCCCOc2cccn3ccnc23)C1=O [compound 69] | 6.1 µM | 4 µM |  |  | 
18 | CCCCCCCC=C1SC(=O)N(CCCCOc2cccn3ccnc23)C1=O [compound 71] | 5.2 µM | 4.6 µM |  |  | 
19 | CCCC=C1SC(=O)N(CCc2cccc3nccn23)C1=O [compound 14] | 6.1 µM | 5.1 µM |  |  | 
20 | CCCCCC=C1OC(=O)N(CCCCOc2cccn3ccnc23)C1=O [compound 75] | 6.1 µM | 3.5 µM |  |  | 

Row | SMILES | IC50 [1] | IC50 [2] | Urinary Albumin [3] | Urinary Total Protein [3] | Plasma Glucose [3]
21 | O=c1c(-c2ccccc2)c2n(c(=O)n1CCCCSc1cccc3nccn13)CCC[S+]2[O-] (stereo not drawn) [compound 51] | 6.8 µM | 2.8 µM |  |  | 
22 | CCCC=C1SC(=O)N(CCCOc2cccn3ccnc23)C1=O [compound 47] | 4.2 µM | 3 µM |  |  | 
23 | CCC/C=C1\OC(=O)N(CCCCOc2cccn3c(C(=O)C(F)(F)F)cnc23)C1=O [compound 76] | 7.1 µM | 6.7 µM |  |  | 
24 | CCCCCCCCCC=C1SC(=O)N(CCCCSc2cccc3nccn23)C1=O [compound 6] | 6.3 µM | 7.3 µM |  |  | 
25 | CCCC=C1SC(=O)N(CCCCSc2nccc3nccn23)C1=O [compound 25] | 8 µM | 4 µM |  |  | 
26 | CCCCCCCC=C1SC(=O)N(CCCCSc2cccc3nccn23)C1=O [compound 60] | 9 µM | 9.2 µM |  |  | 
27 | CCCC=C1SC(=O)N(CCCCOc2cccn3c(C(=O)C(F)(F)F)cnc23)C1=O [compound 34] | 6.1 µM | 5.2 µM |  |  | 
28 | CN(C)Cc1cnc2cccc(SCCCCn3c(=O)c(-c4ccccc4)c4n(c3=O)CCCS4(=O)=O)n12 [compound 56] | 5.7 µM | 3.9 µM |  |  | 
29 | CCCCCCCCCC=C1SC(=O)N(CCCCOc2cccn3ccnc23)C1=O [compound 72] | 5.6 µM | 6.4 µM |  |  | 
30 | CCCC=C1SC(=O)N(CCCCCc2cccc3nccn23)C1=O [compound 3] | 4.2 µM | 5 µM | 22.34 ± 7.24 mg/day | 97.61 ± 16.26 mg/day | 253.17 ± 34.14 mg/dL
31 | O=C1SC(=CCCc2ccc(Cl)cc2)C(=O)N1CCCCSc1cccc2nccn12 [compound 85] | 3.9 µM | 4.3 µM |  |  | 
32 | O=C1SC(=CCCc2ccccc2)C(=O)N1CCCCOc1cccn2ccnc12 [compound 67] | 3.9 µM | 3.4 µM |  |  | 
33 | CCCC=C1SC(=O)N(CCCCOc2cccc3nccn23)C1=O [compound 8] | 4.4 µM | 3.8 µM |  |  | 
34 | CCCCCC=C1SC(=O)N(CCCCOc2cccn3ccnc23)C1=O [compound 70] | 6.9 µM | 5.3 µM |  |  | 
35 | CCCC=C1SC(=O)N(CCCCSc2cccc3ncc(Br)n23)C1=O [compound 50] | 6.9 µM | 4.7 µM |  |  | 
36 | CCCC=C1SC(=O)N(CCCCSc2cccc3ncc(C(=O)C(F)(F)F)n23)C1=O [compound 35] | 4.6 µM | 3.4 µM |  |  | 
37 | CCCC=C1SC(=O)N(CSc2cccc3nccn23)C1=O [compound 13] | 6.3 µM | 5.1 µM |  |  | 
38 | O=C1SC(=CCCCCc2ccccc2)C(=O)N1CCCCSc1cccc2nccn12 [compound 65] | 5.3 µM | 5 µM |  |  | 
39 | CCC/C=C1/OC(=O)N(CCCCOc2cccn3c(C(=O)C(F)(F)F)cnc23)C1=O [compound 77] | 6 µM | 6.3 µM |  |  | 

Now from value to compound, other results behind:

Row | IC50 [1] | IC50 [2] | SMILES | Urinary Albumin [3] | Urinary Total Protein [3] | Plasma Glucose [3]
40 | 3.5 µM | 5.3 µM | CCCC=C1SC(=O)N(CCSc2cccc3nccn23)C1=O [compound 5] |  |  | 
41 | 3.8 µM | 3.7 µM | O=C1SC(=CCCc2ccccc2F)C(=O)N1CCCCSc1cccc2nccn12 [compound 83] |  |  | 
42 | 3.7 µM | 3.4 µM | O=C1SC(=CCCc2cccnc2)C(=O)N1CCCCSc1cccc2nccn12 [compound 38] |  |  | 
43 | 3.6 µM | 4.3 µM | O=C1SC(=CCCc2ccc(F)cc2)C(=O)N1CCCCSc1cccc2nccn12 [compound 82] |  |  | 
44 | 0.9 µM | 0.5 µM | O=c1c(Cc2ccccc2)c2n(c(=O)n1CCCCSc1cccc3nccn13)CCCS2(=O)=O [compound 41] |  |  | 
45 | 1.8 µM | 1.1 µM | Cc1c2n(c(=O)n(CCCCSc3cccc4nccn34)c1=O)CCCS2(=O)=O [compound 40] |  |  | 
46 | 1.5 µM | 1 µM | CC(C)c1c2n(c(=O)n(CCCCSc3cccc4nccn34)c1=O)CCCS2(=O)=O [compound 42] |  |  | 
47 | 3.5 µM | 2.2 µM | O=c1cc2n(c(=O)n1CCCCSc1cccc3nccn13)CCCS2(=O)=O [compound 43] |  |  | 
48 | 3.6 µM | 4.1 µM | O=C1SC(=CCCc2ccccc2Cl)C(=O)N1CCCCSc1cccc2nccn12 [compound 84] |  |  | 
49 | 3.9 µM | 3 µM | O=C1SC(=CCCc2ccccc2)C(=O)N1CCCCSc1cccc2nccn12 [compound 19] |  |  | 
50 | 2.4 µM | 2.3 µM | CCC=C1SC(=O)N(CCCCSc2cccc3nccn23)C1=O [compound 10] |  |  | 
51 | 3 µM | 2.9 µM | CCCC=C1SC(=O)N(CCCCSc2cccc3nccn23)C1=O [compound 2] | 20.49 ± 6.95 mg/day | 96.64 ± 18.31 mg/day | 333.67 ± 46.41 mg/dL
52 | 2.9 µM | 1.9 µM | CC=C1SC(=O)N(CCCCSc2cccc3nccn23)C1=O [compound 11] |  |  | 
53 | 2.4 µM | 3.3 µM | O=C1SC(=CCCc2cccnc2)C(=O)N1CCCCOc1cccn2ccnc12 [compound 39] |  |  | 
54 | 3.7 µM | 2.1 µM | O=c1c(-c2ccccc2)c2n(c(=O)n1CCCCSc1cccc3nccn13)CCS2(=O)=O [compound 36] |  |  | 
55 | 3.1 µM | 2.3 µM | CCCC=C1SC(=O)N(CCCCc2cccc3nccn23)C1=O [compound 7] |  |  | 
56 | 3.7 µM | 4.1 µM | CCCC=C1SC(=O)N(CCCCOc2cccn3cc(-c4ccccc4)nc23)C1=O [compound 26] |  |  | 
57 | 2.4 µM | 2.6 µM | CCCC=C1OC(=O)N(CCCCSc2cccc3nccn23)C1=O [compound 9] |  |  | 
